For series [1], the system named is STZ-treated rats with neuropathy. As to the kind of experiment: Forced swim test (FST). The conditions noted are these: 10 mg/kg p.o. once daily from day 28, test on day 41, 5-min test. The class given is in vivo, rat. How it is done:
(§1) On the day of diabetic state induction, rats were deprived of food for 6 h (from 8 a.m. to 2 p.m.). A single i.p. injection was applied with 55 mg/kg STZ in the ice-cold citrate buffer (0.1 M pH 4.4). The observed polydipsia, polyuria, reduced thriving with lower body weight, and poor coating appearance indirectly indicated the development of diabetes. On day 28, after 6 h of fasting, blood glucose was measured with an Xpress Statstrip Glucometer (Nova Biomedical Corporation, Waltham, MA, USA) from the tail vein. A cut-off value of blood glucose >13 mmol/l was adopted. […] Controls were once i.p. injected with ice-cold citrate buffer 0.1 M pH 4.4 only.
(§2) Three animals per cage were housed for the experiment 2 (Fig. 3B). Rats were gently manipulated daily before undertaking the actual behavior tests. […] Body weight (BW), coat score (CS), CPT, R–S, and FT were evaluated on day 28th post-STZ, and after that, rats were distributed into the treatment groups as follows. • C-Veh – Controls, vehiculum treatment (n = 12) • NP-Veh – STZ-treated rats with neuropathy, vehiculum treatment (n = 12) • NP-KB-R7943 – 5 mg - STZ-treated rats, with neuropathy, KB-R7943 5 mg/kg treatment (n = 12) • NP-KB-R7943 – 10 mg – STZ-treated rats, with neuropathy, KB-R7943 10 mg/kg (n = 12) • NP-AMT – 10 mg - STZ-treated rats, with neuropathy, amitriptyline 10 mg/kg (n = 12). […]

For series [2] the test system is unchanged. As to the kind of experiment: 24-hour spontaneous physical activity. The class given is in vivo, rat. As to conditions: 5 mg/kg p.o. once daily from day 28, from day 41. As to the method: as §1, §2
Series [3] has the same test system. As to the kind of experiment: Coat state score. It counts as in vivo, rat. As to conditions: chronic p.o. treatment from day 28, day 42. How it is done: as §1
as §2, with “3B).” for “3B). Rats were gently manipulated daily before undertaking the actual behavior tests.”
Coat state, water consumption, and body weight were evaluated weakly. […] Water consumption was measured per cage. […]

Series [4] has the same test system. As to the kind of experiment: Formalin test (0.5% formalin). It counts as in vivo, rat. As to the method: as §1
(§3) Three animals per cage were housed for the experiment 2 (Fig. 3B). Rats were gently manipulated daily before undertaking the actual behavior tests. One week after adaptation, the Randl-Stellito (R–S) test, cold plate test (CPT), and formalin tests (FT) were performed at baseline. After that, the diabetes model was made with 48 rats. Twelve animals served as controls. Body weight (BW), coat score (CS), CPT, R–S, and FT were evaluated on day 28th post-STZ, and after that, rats were distributed into the treatment groups as follows. • C-Veh – Controls, vehiculum treatment (n = 12) • NP-Veh – STZ-treated rats with neuropathy, vehiculum treatment (n = 12) • NP-KB-R7943 – 5 mg - STZ-treated rats, with neuropathy, KB-R7943 5 mg/kg treatment (n = 12) • NP-KB-R7943 – 10 mg – STZ-treated rats, with neuropathy, KB-R7943 10 mg/kg (n = 12) • NP-AMT – 10 mg - STZ-treated rats, with neuropathy, amitriptyline 10 mg/kg (n = 12).
OraPlus was used as a vehiculum for gavage (16 gauge feeding tube 10 ml/kg) in all rats. KB-R7943 in two doses (5 or 10 mg/kg) or amitriptyline 10 mg/kg was applied once daily until day 49. Behavior tests were performed […] after the oral gavage of the corresponding day, in the afternoon, starting from 2 p.m. […] On day 41, an FST was performed, and at 2 p.m., rats were placed individually for 24 h to assess spontaneous physical activity. After that, on day 42, the same battery of the tests as on day 28 were reassessed.
The formalin test was performed 1 h after the R–S test to decrease the interaction with the mechanical stimulus from the previous test. For the same reason, the left hind paws were injected. A needle (U-100 Insulin Syringe, Beckton and Dickinson, Dublin, Ireland) was used. A low-dose intraplantar injection of formalin 50 mcl 0.5% was done, and rats were placed in individual transparent cases for observation. Two independent observers measured the time spent licking or biting the injected paw, and the first (0–5 min) and the second post-injection phase (20–30 min) were reported in sec.

The test system is the same in series [5]. Description: Mortality and adverse effects during chronic oral treatment. The class given is in vivo. The conditions noted are these: rat, in vivo, po. As to the method: as §3
OraPlus was used as a vehiculum for gavage (16 gauge feeding tube 10 ml/kg) in all rats. KB-R7943 in two doses (5 or 10 mg/kg) or amitriptyline 10 mg/kg was applied once daily until day 49. Behavior tests were performed […] after the oral gavage of the corresponding day, in the afternoon, starting from 2 p.m. […] On day 41, an FST was performed, and at 2 p.m., rats were placed individually for 24 h to assess spontaneous physical activity. […]

The next series relates to NCX3. Details: method as in PMID 9688596. The conditions noted are these: cited from earlier work.

Consider `N=C(N)SCCc1ccc(OCc2ccc([N+](=O)[O-])cc2)cc1` [KB-R7943, [(2-{4-[(4-nitrophenyl)methoxy]phenyl}ethyl)sulfanyl]methanimidamide], for which, in series [1], the “immobility time in FST” value is recorded as 131.67 ± 29.80 s. Moreover, the “24-h spontaneous physical activity” value in series [2] was found to be 1705.92 ± 237.74 beam breaks. Besides, in series [3], the “effect on coat score” value is reported as “ameliorated”. In addition, the “effect on formalin test first phase (0–5 min)” value is reported as “weaker effect” in series [4] (5 mg/kg p.o. once daily, vs. 10 mg/kg groups) and “attenuated” in series [4] (10 mg/kg p.o. once daily, vs. NP-Veh). Moreover, the “effect on formalin test second phase (20–30 min)” value in series [4] (amitriptyline 10 mg/kg, KB-R7943 5 and 10 mg/kg p.o. once daily, vs. NPveh, dose-dependent) is reported as “attenuated”. Moreover, the mortality during treatment entry in series [5] was “No one rat died”. In the series on NCX3, the “potency as inhibitor of NCX3 relative to NCX1 and NCX2” value is “three-fold more potent inhibitor of NCX3 than NCX1 and NCX2”.

Source of the values: paper PMC10958225, “Therapeutic potential of orally applied KB-R7943 in streptozotocin-induced neuropathy in rats” (Heliyon, 2024).
